Experimental data as given in the supplement of paper PMC8960247.
± gives the standard error.

Columns and labels:
621-103 (TSC2-rescued) = test: relative viability vs DMSO; higher = less cytotoxic; conditions: serum: 10% FBS, 72 h
621-102 (TSC2-deficient) = test: as above; conditions: serum: 10% FBS, 72 h
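Also: immortalized renal angiomyolipoma cells stably carrying empty vector or TSC2, dosed in 384-well plates in DMEM, viability normalized to vehicle-treated wells within each plate.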

Compound | relative viability (621-103 (TSC2-rescued); 0.0001 µM) [%] | relative viability (621-103 (TSC2-rescued); 0.001 µM) [%] | relative viability (621-103 (TSC2-rescued); 0.01 µM) [%] | relative viability (621-103 (TSC2-rescued); 0.1 µM) [%] | relative viability (621-103 (TSC2-rescued); 1 µM) [%] | relative viability (621-103 (TSC2-rescued); 10 µM) [%] | relative viability (621-102 (TSC2-deficient); 0.0001 µM) [%] | relative viability (621-102 (TSC2-deficient); 0.001 µM) [%] | relative viability (621-102 (TSC2-deficient); 0.01 µM) [%] | relative viability (621-102 (TSC2-deficient); 0.1 µM) [%] | relative viability (621-102 (TSC2-deficient); 1 µM) [%] | relative viability (621-102 (TSC2-deficient); 10 µM) [%]
COc1cccc(-c2cc(=O)c3ccccc3o2)c1N | 100 ± 2.6 | 99.7 ± 1.8 | 103 ± 1.9 | 99.8 ± 1.2 | 98.6 ± 2.6 | 97.6 ± 3.2 | 109 ± 2.8 | 103 ± 3 | 104.2 ± 0.83 | 104 ± 6 | 107.8 ± 0.69 | 109 ± 2.6
COc1cccc(Nc2c(C(N)=O)cnc3c(C)cc(S(=O)(=O)c4cccc(C(=O)N(C)C)c4)cc23)c1 | 104 ± 3.4 | 103.1 ± 0.49 | 102 ± 3.5 | 103.2 ± 0.47 | 95.9 ± 3.8 | 93.3 ± 3.2 | 105 ± 5 | 102 ± 2.6 | 97.2 ± 5.1 | 104 ± 2.7 | 97.1 ± 0.98 | 95.9 ± 2
COc1ncc(-c2ccc3nccc(-c4ccnnc4)c3c2)cc1NS(=O)(=O)c1ccc(F)cc1F | 107 ± 3.9 | 101.89 ± 0.069 | 91 ± 4.4 | 61.4 ± 2.5 | 47.565 ± 0.012 | 41 ± 2.4 | 80.7 ± 11 | 68.1 ± 1.7 | 59.2 ± 0.65 | 38.9 ± 1.5 | 23.3 ± 2 | 26.3 ± 1.8
C[C@@H](Oc1cc(-c2cnn(C3CCNCC3)c2)cnc1N)c1c(Cl)ccc(F)c1Cl | 99.34 ± 0.12 | 102.8 ± 0.57 | 102 ± 1.5 | 103 ± 1.6 | 101.6 ± 0.21 | 5.36 ± 0.69 | 105.6 ± 0.81 | 97.3 ± 6.2 | 104 ± 2.6 | 106 ± 1.4 | 98 ± 2.9 | 10.7 ± 1.4
C[C@@H](Oc1cc(-n2cnc3ccc(CN4CCN(C)CC4)cc32)sc1C(N)=O)c1ccccc1C(F)(F)F | 100 ± 1.7 | 71.9 ± 4.3 | 60.2 ± 0.98 | 48.49 ± 0.29 | 40.7 ± 0.62 | 9.95 ± 0.89 | 97.01 ± 0.82 | 88.1 ± 1.3 | 64.5 ± 3.1 | 45.3 ± 0.63 | 40.7 ± 3.1 | 27.1 ± 3.8
C[C@@H]1CN(CC(=O)Nc2ccc3c(c2)Cc2cccc(-c4cc(=O)cc(N5CCOCC5)o4)c2S3)C[C@H](C)O1 | 79.7 ± 1.1 | 86 ± 3.5 | 83 ± 0.38 | 84.6 ± 1 | 77.8 ± 3.1 | 59.4 ± 5.5 | 101 ± 1.9 | 96.34 ± 0.66 | 96.06 ± 0.86 | 97.1 ± 2.1 | 97.3 ± 1.5 | 65.9 ± 0.85
Cc1ccc(CN2CCNCC2)cc1NC(=O)CNc1ccc(F)c(F)c1 | 113 ± 3.6 | 98.9 ± 2 | 108 ± 3.7 | 102 ± 2.5 | 95.4 ± 2.7 | 90.85 ± 0.73 | 112 ± 2.2 | 98.3 ± 5.5 | 100.6 ± 0.38 | 104 ± 3.2 | 88 ± 1.4 | 92.96 ± 0.19
Cc1cccc(-c2nn3c(c2-c2ccnc4ccc(C(N)=O)cc24)CCC3)n1 | 102.4 ± 0.59 | 93.4 ± 3.5 | 97.8 ± 2.9 | 97.7 ± 2.5 | 99.2 ± 0.91 | 106 ± 1.6 | 97.6 ± 7.5 | 87.2 ± 2 | 95.57 ± 0.43 | 109 ± 5.5 | 96 ± 2.2 | 93.9 ± 4.6
Cc1ccccc1-n1c(Cn2cnc3c(N)ncnc32)nc2cccc(C)c2c1=O | 100.1 ± 0.63 | 100.4 ± 0.26 | 98 ± 1.1 | 100 ± 1.5 | 99.34 ± 0.9 | 96.2 ± 2.4 | 108.5 ± 0.61 | 117.2 ± 0.36 | 118 ± 4 | 116.3 ± 0.6 | 101.3 ± 0.42 | 99.9 ± 0.73
Cn1cc(-c2ccc3nnc(C(F)(F)c4ccc5ncccc5c4)n3n2)cn1 | 102 ± 1.7 | 101 ± 1.4 | 100.6 ± 0.28 | 100.3 ± 0.23 | 100.3 ± 0.95 | 98.25 ± 0.26 | 101 ± 1.6 | 100.8 ± 0.26 | 99.2 ± 1.3 | 95.7 ± 1.9 | 96.8 ± 4.5 | 98.19 ± 0.64
NC1=N[C@@]2(c3cc(NC(=O)c4ccc(F)cn4)ccc3F)COC[C@H]2CS1 | 101 ± 4.3 | 101 ± 3.9 | 100 ± 1.9 | 101 ± 2 | 99.2 ± 2.8 | 93.7 ± 1.1 | 105 ± 1.8 | 105 ± 1.3 | 105 ± 0.55 | 100 ± 1.3 | 99.9 ± 2 | 96.4 ± 1.9
Nc1nc(Nc2ccc(S(N)(=O)=O)cc2)nn1C(=O)c1c(F)cccc1F | 98.71 ± 0.9 | 105 ± 2.8 | 106.4 ± 0.39 | 110 ± 4.5 | 93.5 ± 4.2 | 40.01 ± 0.12 | 107 ± 1.5 | 102.5 ± 0.3 | 107 ± 1.8 | 104 ± 1.3 | 97 ± 1.4 | 49.9 ± 5.8
O=C(NOCC(O)CO)c1cc(Br)c(F)c(F)c1Nc1ccc(I)cc1F (configuration not stated) | 96.8 ± 0.31 | 95 ± 3 | 98.9 ± 1.2 | 93.54 ± 0.87 | 93.44 ± 0.33 | 74.3 ± 5.1 | 105 ± 4.9 | 99.7 ± 2.8 | 105.5 ± 0.56 | 106 ± 1.1 | 100 ± 1.4 | 93.7 ± 1.3
O=C(NOC[C@H](O)CO)c1ccc(F)c(F)c1Nc1ccc(I)cc1F | 96.2 ± 1.3 | 98.8 ± 2.7 | 100.2 ± 0.66 | 94.5 ± 0.99 | 87.31 ± 0.23 | 64.6 ± 1.8 | 98.6 ± 2.5 | 104 ± 4.5 | 106.7 ± 0.59 | 106.2 ± 0.49 | 98.6 ± 1 | 52.32 ± 0.36
O=C(c1ccc(F)cc1)N1CCC[C@H](c2nc(-c3ccc(F)cc3)no2)C1 | 102 ± 2.5 | 97.8 ± 7.7 | 100 ± 3.3 | 103 ± 2.4 | 105 ± 0.68 | 108 ± 4.5 | 90.9 ± 4.4 | 89.5 ± 2 | 107 ± 1.4 | 104.7 ± 0.73 | 97.3 ± 4.3 | 89.7 ± 2.8
O=C1NC(=O)/C(=C/c2ccc3nccc(-c4ccncc4)c3c2)S1 | 94.69 ± 0.22 | 101.8 ± 0.76 | 107 ± 2 | 101.5 ± 0.46 | 93.69 ± 0.33 | 33.1 ± 0.64 | 101 ± 3.6 | 106.8 ± 0.82 | 105 ± 5.2 | 97.8 ± 5.1 | 80.5 ± 5 | 32.8 ± 1.8
O=c1cc(-c2cccc3c2Sc2ccccc2S3)oc(N2CCOCC2)c1 | 78.3 ± 1.3 | 90.23 ± 0.51 | 85 ± 3.9 | 82.9 ± 0.99 | 77.06 ± 0.31 | 69.3 ± 3.3 | 101 ± 3 | 99.73 ± 0.79 | 98.3 ± 3.2 | 94.4 ± 1.1 | 100 ± 2.1 | 80.3 ± 0.73
O=c1cc(N2CCOCC2)oc2c(-c3ccccc3)cccc12 | 99.7 ± 1.1 | 100.3 ± 0.45 | 99.792 ± 0.068 | 97.55 ± 0.48 | 101.1 ± 0.21 | 65.2 ± 1.9 | 95.6 ± 1.2 | 111 ± 5 | 119.9 ± 0.6 | 113.8 ± 0.48 | 104 ± 1.5 | 80.2 ± 1.1
OCCn1cc(-c2cnc3nnn(Cc4ccc5ncccc5c4)c3n2)cn1 | 104.7 ± 0.61 | 102 ± 0.94 | 101.9 ± 0.21 | 103 ± 1.6 | 103.2 ± 0.56 | 99.7 ± 2.3 | 103 ± 2.2 | 98.7 ± 1.2 | 89.7 ± 2.1 | 100 ± 3.4 | 96 ± 2.5 | 93.2 ± 1.2
Oc1ccc([C@@H]2Oc3ccc(O)cc3[C@@H]3CCC[C@@H]32)cc1 | 106 ± 1.5 | 101.57 ± 0.083 | 103 ± 1.1 | 106 ± 2.1 | 103.1 ± 0.19 | 66.2 ± 5.5 | 120.08 ± 0.051 | 124 ± 1.3 | 105 ± 1.5 | 108 ± 2.7 | 113 ± 5.1 | 65.5 ± 4
c1ccc2c(CCNc3ccc(Nc4ccncc4)cc3)c[nH]c2c1 | 113.5 ± 1 | 103 ± 1.1 | 103 ± 1.1 | 106 ± 1.8 | 105 ± 2 | 64.7 ± 3.8 | 131 ± 2 | 122 ± 2.9 | 119.8 ± 0.41 | 114 ± 1.4 | 110 ± 6.2 | 68.7 ± 4.9
